Measured values: patent US10881667B2, “Method and composition for treating epilepsy” (City University of Hong Kong, priority 2018, dated 2021)
“Also recorded” adds a separate entry of the source.

System: epilepsy model mice (intrahippocampal kainic acid)
Assay: spontaneous recurrent seizures in kainic acid-induced epilepsy model mice, Racine scale accumulative scores
Assay type: in vivo, C57 mice
Conditions: YM022 100 nM, YF476 1 μM; for accumulative scores of spontaneous seizures / spontaneous seizures onset after drug intervention: adult male C57 mice, kainic acid model, i.p. injection, 10 μL (5 mice), 10 μL (9 mice), vs day before intervention; for seizure onsets after multiple injections: kainic acid model mice, multiple i.p. injections, 10 μL
Description: FIG. 1 is a series of line plots depicting the statistics of the accumulative scores of spontaneous seizures of epilepsy model mice before and after single or multiple drug interventions ([…], 1 μM, 10 μL). The 9 lines represent 9 epilepsy model mice of the experiment, and the black arrows indicate the time of drug interventions. Accumulative scores were recorded base on the quantity and severity of spontaneous seizures: 3=Racine scale stage-5 seizure; 2=Racine scale stage-4 seizure; 1=Racine scale stage-3 seizure; accumulative score is equal to sum of scores of seizures on daily basis.
FIG. 2 is a series of line plots depicting the statistics of the accumulative scores of spontaneous seizures of epilepsy model mice before and after single or multiple drug interventions (YM022, 100 nM, 10 μL). The 5 lines represent 5 epilepsy model mice of the experiment, and the black arrows indicate the time of drug interventions.
Adult male C57 mice were housed under standard conditions, with food and water available. For injection of kainic acid, mice were anesthetized with sodium pentobarbital (50 mg/kg, i.p.; Ceva Sante Animale Co., France), and atropine sulphate (0.05 mg/kg, s.c.) was administered to inhibit tracheal secretions. Kainic acid (0.3 mg/mL, 650 nL, Tocris), was stereotaxically injected into the right CA3 area of the hippocampus. Kainic acid was slowly injected over 60 s with a 2 μL microsyringe at the following stereotaxic coordinates: AP, −2.06; ML, −1.80; DV, −1.60, respectively. After injection, the needle of the syringe was maintained in situ for additional 5 min to limit reflux along the injection track. Directly after surgery, the mice were housed in clear plexiglass cages (one per cage). A special camera was placed diagonally above each cage for monitoring in both the light and dark phase. Exactly 2 weeks after kainic acid treatment, all videos were collected regularly, and three trained technicians blind to drug intervention viewed the videos. The seizure activities during 12-h epoch (00:00 a.m. to 12:00 p.m.) were rated with Racine scale (Electroencephalogr Clin Neurophysiol, 1972, 32(3): 281-294). Accumulative scores were recorded base on the quantity and severity of spontaneous seizures: 3=Racine scale stage-5 seizure; 2=Racine scale stage-4 seizure; 1=Racine scale stage-3 seizure; accumulative score is equal to sum of scores of seizures on daily basis.
The model of epilepsy induced in mice by kainic acid reproduces most of the clinical and neurophysiological features of human temporal lobe epilepsy. Unilateral intrahippocampal injection of kainic acid induced a limbic status epilepticus which may last for up to 5 hours. […]

SMILES | accumulative scores of spontaneous seizures / spontaneous seizures onset after drug intervention | seizure onsets after multiple injections
CNc1cccc(NC(=O)N[C@@H]2N=C(c3ccccn3)c3ccccc3N(CC(=O)C(C)(C)C)C2=O)c1 [YF476] | significantly reduce; also recorded: significant reduction | very rare
Cc1cccc(NC(=O)N[C@@H]2N=C(c3ccccc3)c3ccccc3N(CC(=O)c3ccccc3C)C2=O)c1 [YM022] | significantly reduce; also recorded: significant reduction | very rare
